Converted amounts (≈) assume the structure as drawn. “And” between values parts separate entries of the source, which are not always exact repeats. Equal entries are not always repeated. “Also recorded” adds a separate entry of the source. Where two headings read alike, the source gives them in different places.
Key:
SARS-CoV pseudovirus [1] = experiment: microbe, parasite or virus in culture; assay type: cell-based; settings: Severe acute respiratory syndrome coronavirus, 293T/ACE2
SARS-CoV pseudovirus [2] = experiment: microbe, parasite or virus in culture; assay type: cell-based; settings: Severe acute respiratory syndrome coronavirus, A549-ACE2
MERS-CoV pseudovirus [3] = experiment: microbe, parasite or virus in culture; assay type: cell-based; settings: Middle East respiratory syndrome-related coronavirus, Huh-7
MERS-CoV pseudovirus [4] = experiment: microbe, parasite or virus in culture; assay type: cell-based; settings: Middle East respiratory syndrome-related coronavirus, MRC5
[5] = tested on: SARS-CoV-2 (US_WA-1/2020); assay type: cell-based
[6] = tested on: SARS-CoV-2 full Spike wild-type (Wuhan-Hu-1) mediated cell-to-cell fusion; experiment: cells; assay type: cell-based
[7] = target: SARS-CoV-2 spike (active trimer) His-tag (Severe acute respiratory syndrome coronavirus 2, UniProt P0DTC2); assay type: binding
SARS-CoV-2 pseudovirus = experiment: microbe, parasite or virus in culture; assay type: cell-based
[8] = rat, in vivo
[9] = pH 7.4
[10] = human, microsomes
CYP1A2 = CYP1A2 (Homo sapiens, UniProt P05177)
CYP1A2, sequence (P05177 whole entry): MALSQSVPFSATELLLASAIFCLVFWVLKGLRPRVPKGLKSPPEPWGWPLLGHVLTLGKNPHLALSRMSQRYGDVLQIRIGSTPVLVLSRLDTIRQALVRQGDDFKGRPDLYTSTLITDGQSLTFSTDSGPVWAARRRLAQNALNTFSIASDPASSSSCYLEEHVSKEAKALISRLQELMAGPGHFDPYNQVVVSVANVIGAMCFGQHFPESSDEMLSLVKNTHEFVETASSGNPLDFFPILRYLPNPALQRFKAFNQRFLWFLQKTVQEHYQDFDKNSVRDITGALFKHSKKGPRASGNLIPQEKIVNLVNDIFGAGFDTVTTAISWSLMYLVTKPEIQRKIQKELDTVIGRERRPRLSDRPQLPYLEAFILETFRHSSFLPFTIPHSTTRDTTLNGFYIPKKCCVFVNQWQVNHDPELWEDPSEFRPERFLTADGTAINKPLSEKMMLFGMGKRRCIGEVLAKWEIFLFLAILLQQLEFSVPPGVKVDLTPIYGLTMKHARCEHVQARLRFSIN

CYP2B6 = CYP2B6 (Homo sapiens, UniProt P20813)
CYP2B6, sequence (P20813 whole entry): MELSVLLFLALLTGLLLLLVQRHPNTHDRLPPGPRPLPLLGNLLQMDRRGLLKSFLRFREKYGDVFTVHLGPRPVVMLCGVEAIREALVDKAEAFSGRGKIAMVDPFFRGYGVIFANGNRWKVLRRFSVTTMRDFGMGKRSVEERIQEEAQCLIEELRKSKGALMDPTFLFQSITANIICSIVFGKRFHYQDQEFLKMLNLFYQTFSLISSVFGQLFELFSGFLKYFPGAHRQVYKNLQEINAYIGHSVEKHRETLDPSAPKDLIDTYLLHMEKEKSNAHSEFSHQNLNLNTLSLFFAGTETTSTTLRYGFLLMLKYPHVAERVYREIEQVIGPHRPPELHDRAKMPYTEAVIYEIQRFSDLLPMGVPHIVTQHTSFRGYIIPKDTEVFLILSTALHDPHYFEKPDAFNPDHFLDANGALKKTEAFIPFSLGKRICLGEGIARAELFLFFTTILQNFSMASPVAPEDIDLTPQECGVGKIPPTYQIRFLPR

CYP2C8 = CYP2C8 (Homo sapiens, UniProt P10632)
CYP2C8, sequence (P10632 whole entry): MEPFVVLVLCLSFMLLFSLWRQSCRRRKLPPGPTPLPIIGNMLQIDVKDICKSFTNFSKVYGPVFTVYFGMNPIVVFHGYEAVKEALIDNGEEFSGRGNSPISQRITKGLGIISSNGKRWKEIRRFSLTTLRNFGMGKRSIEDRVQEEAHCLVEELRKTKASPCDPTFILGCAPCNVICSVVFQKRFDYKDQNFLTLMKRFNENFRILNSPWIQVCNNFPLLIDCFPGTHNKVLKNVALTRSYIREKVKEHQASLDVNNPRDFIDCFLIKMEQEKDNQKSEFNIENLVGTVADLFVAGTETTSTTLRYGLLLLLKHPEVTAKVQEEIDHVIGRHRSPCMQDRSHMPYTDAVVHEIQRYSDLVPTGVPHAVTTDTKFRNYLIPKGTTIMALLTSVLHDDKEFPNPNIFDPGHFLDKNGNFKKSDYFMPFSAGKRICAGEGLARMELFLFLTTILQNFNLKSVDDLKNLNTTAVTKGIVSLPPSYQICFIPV

CYP2C9 = CYP2C9 (Homo sapiens, UniProt P11712)
CYP2C9, sequence (P11712 whole entry): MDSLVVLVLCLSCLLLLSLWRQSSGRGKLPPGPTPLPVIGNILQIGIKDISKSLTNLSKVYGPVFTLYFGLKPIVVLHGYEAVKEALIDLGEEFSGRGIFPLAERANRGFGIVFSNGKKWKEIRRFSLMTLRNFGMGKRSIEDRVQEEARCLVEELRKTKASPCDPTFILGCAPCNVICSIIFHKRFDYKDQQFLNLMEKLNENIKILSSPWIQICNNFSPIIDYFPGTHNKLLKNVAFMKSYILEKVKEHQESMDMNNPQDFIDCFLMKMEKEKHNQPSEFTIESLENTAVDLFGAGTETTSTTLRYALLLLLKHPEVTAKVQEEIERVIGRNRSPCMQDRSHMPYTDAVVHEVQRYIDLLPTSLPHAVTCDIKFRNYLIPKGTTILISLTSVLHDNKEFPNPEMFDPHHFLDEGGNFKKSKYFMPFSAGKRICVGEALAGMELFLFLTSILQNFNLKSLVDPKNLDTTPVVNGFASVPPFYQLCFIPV

CYP2C19 = CYP2C19 (Homo sapiens, UniProt P33261)
CYP2C19, sequence (P33261 whole entry): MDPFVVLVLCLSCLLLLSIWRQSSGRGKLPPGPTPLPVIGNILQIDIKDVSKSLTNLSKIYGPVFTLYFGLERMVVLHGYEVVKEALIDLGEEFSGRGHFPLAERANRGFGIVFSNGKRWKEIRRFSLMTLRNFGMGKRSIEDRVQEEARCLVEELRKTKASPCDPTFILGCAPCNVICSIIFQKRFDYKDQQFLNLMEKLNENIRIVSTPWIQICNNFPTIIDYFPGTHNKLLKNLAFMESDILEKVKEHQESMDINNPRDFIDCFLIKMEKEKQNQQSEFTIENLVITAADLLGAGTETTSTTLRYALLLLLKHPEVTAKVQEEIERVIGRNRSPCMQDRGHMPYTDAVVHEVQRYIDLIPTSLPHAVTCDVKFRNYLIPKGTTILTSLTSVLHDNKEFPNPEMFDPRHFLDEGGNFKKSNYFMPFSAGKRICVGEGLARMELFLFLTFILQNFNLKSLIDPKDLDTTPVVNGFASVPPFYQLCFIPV

CYP2D6 [11] = target: T1, CYP2D6 (Homo sapiens, UniProt P10635)
T1 sequence (P10635 whole entry): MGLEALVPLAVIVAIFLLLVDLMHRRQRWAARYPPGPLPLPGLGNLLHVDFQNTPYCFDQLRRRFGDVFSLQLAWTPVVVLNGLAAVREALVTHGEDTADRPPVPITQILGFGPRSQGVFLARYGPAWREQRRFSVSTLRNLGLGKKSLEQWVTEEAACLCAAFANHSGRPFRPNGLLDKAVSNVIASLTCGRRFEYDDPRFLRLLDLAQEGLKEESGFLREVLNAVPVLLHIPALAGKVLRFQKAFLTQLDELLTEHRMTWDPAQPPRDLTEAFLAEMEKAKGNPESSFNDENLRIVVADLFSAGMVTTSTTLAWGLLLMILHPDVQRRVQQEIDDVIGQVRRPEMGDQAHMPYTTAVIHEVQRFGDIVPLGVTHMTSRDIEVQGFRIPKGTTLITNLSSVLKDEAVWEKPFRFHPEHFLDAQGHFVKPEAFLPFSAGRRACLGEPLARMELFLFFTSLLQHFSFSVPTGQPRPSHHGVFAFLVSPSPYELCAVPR

CYP3A = CYP3A (Homo sapiens, UniProt P08684)
CYP3A, sequence (P08684 2-503): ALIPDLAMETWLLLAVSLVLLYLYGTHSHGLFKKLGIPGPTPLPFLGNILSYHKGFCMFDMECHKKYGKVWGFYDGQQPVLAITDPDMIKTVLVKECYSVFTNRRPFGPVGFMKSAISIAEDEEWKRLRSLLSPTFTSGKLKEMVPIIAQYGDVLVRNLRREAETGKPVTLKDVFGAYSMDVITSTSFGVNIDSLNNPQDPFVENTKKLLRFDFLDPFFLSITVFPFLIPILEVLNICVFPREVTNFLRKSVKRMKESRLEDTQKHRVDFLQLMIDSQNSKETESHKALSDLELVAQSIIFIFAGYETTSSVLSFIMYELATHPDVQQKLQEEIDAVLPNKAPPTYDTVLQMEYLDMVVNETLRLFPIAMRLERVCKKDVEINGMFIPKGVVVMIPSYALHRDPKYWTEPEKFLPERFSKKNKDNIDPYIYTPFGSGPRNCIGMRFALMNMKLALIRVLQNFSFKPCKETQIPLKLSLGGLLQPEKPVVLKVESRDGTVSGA

in vivo = settings: female, Sprague Dawley, rat
in vitro = settings: human
CYP2D6 [12] = target: T1, CYP2D6; experiment: biochemical
[13] = female, Sprague Dawley, iv, 5 mg/kg

O=C(O)c1cc(-c2ccc(/C=C3\SC(=S)N(CCc4ccccc4)C3=O)o2)ccc1Cl [Compound 1, (Z)-2-Chloro-5-(5-((4-oxo-3-phenethyl-2-thioxothiazolidin-5-ylidene)methyl)furan-2-yl)benzoic acid]
IC50 (SARS-CoV pseudovirus [1]): 13.8 to 17 nM
IC50 (SARS-CoV pseudovirus [2]): 98 to 157 nM
IC50 (MERS-CoV pseudovirus [3]): 95 to 158 nM
IC50 (MERS-CoV pseudovirus [4]): 76.5 to 123 nM
IC100 [5]: 1.25 µM
inhibition of SARS-CoV-2 mediated cell-to-cell fusion (in words) [6]: potently inhibited the cell-to-cell fusion even at the lowest dose
inhibition at 0.25 µM ([6]; Severe acute respiratory syndrome coronavirus 2, Jurkat, at 250 nM, read-out: inhibitory activity of SARS-CoV-2 mediated cell-to-cell fusion): 62 to 79%
ka [7]: 1040 M⁻¹ s⁻¹
antiviral activity against SARS-CoV-2 pseudovirus (in words) (SARS-CoV-2 pseudovirus): low nanomolar activity; also recorded: excellent antiviral activity; also recorded: low nM IC50
IC50 (SARS-CoV-2 pseudovirus; Severe acute respiratory syndrome-related coronavirus, read-out: IC50s against SARS-CoV-2 pseudovirus over the cell lines): 32.3 to 63.4 nM
melting point: 348 to 350 °C
C0 [8, 13]: 7407.25 ng/mL
CLobs [8, 13]: 0.00013 mg/kg/(ng/mL)/hr
MRT0-inf_obs [8, 13]: 4.02 h
Vss_obs [8, 13]: 0.00053 mg/kg/(ng/mL)
F % ([8]; female, Sprague-Dawley): 20.1%
MRT0-inf_obs ([8]; female, Sprague-Dawley, po, 10 mg/kg): 14.34 h
Vz/F_obs ([8]; po, 10 mg/kg): 0.01078 mg/kg/(ng/mL)
Solubility in Phosphate Buffer, Average [9]: 4.72 µM (≈ 2.22 µg/mL)
Solubility in Phosphate Buffer, R1 [9]: 4.35 µM (≈ 2.04 µg/mL)
clearance (in words) [10]: low-clearance compound
CYP inhibition class (CYP1A2): moderate (key: IC50 >10 μM (CYP inhibition low); <10 μM (CYP inhibition moderate); <3 μM (CYP inhibition high))
% of Control Enzyme Activity (n = 1) (CYP1A2; 0.0137 μM): 99.2%
% of Control Enzyme Activity (n = 1) (CYP1A2; 0.0412 μM): 96.7%
% of Control Enzyme Activity (n = 1) (CYP1A2; 0.123 μM): 93.8%
% of Control Enzyme Activity (n = 1) (CYP1A2; 0.370 μM): 92.2%
% of Control Enzyme Activity (n = 1) (CYP1A2; 1.11 μM): 89.8%
% of Control Enzyme Activity (n = 1) (CYP1A2; 3.33 μM): 69.5%
% of Control Enzyme Activity (n = 1) (CYP1A2; 10 μM): 41.3%
IC50 (CYP1A2; human, microsomes, pH 7.4): 7400 nM
CYP inhibition class (CYP2B6): moderate (key: IC50 >10 μM (CYP inhibition low); <10 μM (CYP inhibition moderate); <3 μM (CYP inhibition high))
% of Control Enzyme Activity (n = 1) (CYP2B6; 0.0137 μM): 97.5%
% of Control Enzyme Activity (n = 1) (CYP2B6; 0.0412 μM): 98.1%
% of Control Enzyme Activity (n = 1) (CYP2B6; 0.123 μM): 90.4%
% of Control Enzyme Activity (n = 1) (CYP2B6; 0.370 μM): 94.2%
% of Control Enzyme Activity (n = 1) (CYP2B6; 1.11 μM): 76.9%
% of Control Enzyme Activity (n = 1) (CYP2B6; 3.33 μM): 47.0%
% of Control Enzyme Activity (n = 1) (CYP2B6; 10 μM): 15.2%
IC50 (CYP2B6; human, microsomes, pH 7.4): 3190 nM
CYP inhibition class (CYP2C8): high (key: IC50 >10 μM (CYP inhibition low); <10 μM (CYP inhibition moderate); <3 μM (CYP inhibition high))
% of Control Enzyme Activity (n = 1) (CYP2C8; 0.0137 μM): 102%
% of Control Enzyme Activity (n = 1) (CYP2C8; 0.0412 μM): 89.0%
% of Control Enzyme Activity (n = 1) (CYP2C8; 0.123 μM): 98.3%
% of Control Enzyme Activity (n = 1) (CYP2C8; 1.11 μM): 76.9%
% of Control Enzyme Activity (n = 1) (CYP2C8; 3.33 μM): 25.3%
% of Control Enzyme Activity (n = 1) (CYP2C8; 10 μM): 3.87%
IC50 (CYP2C8; human, microsomes, pH 7.4): 2080 nM
CYP inhibition class (CYP2C9): moderate (key: IC50 >10 μM (CYP inhibition low); <10 μM (CYP inhibition moderate); <3 μM (CYP inhibition high))
% of Control Enzyme Activity (n = 1) (CYP2C9; 0.0137 μM): 99.4%
% of Control Enzyme Activity (n = 1) (CYP2C9; 0.0412 μM): 98.2%
% of Control Enzyme Activity (n = 1) (CYP2C9; 0.123 μM): 97.2%
% of Control Enzyme Activity (n = 1) (CYP2C9; 0.370 μM): 95.1%
% of Control Enzyme Activity (n = 1) (CYP2C9; 1.11 μM): 85.1%
% of Control Enzyme Activity (n = 1) (CYP2C9; 3.33 μM): 59.9%
% of Control Enzyme Activity (n = 1) (CYP2C9; 10 μM): 29.8%
IC50 (CYP2C9; human, microsomes, pH 7.4): 5010 nM
CYP inhibition class (CYP2C19): moderate (key: IC50 >10 μM (CYP inhibition low); <10 μM (CYP inhibition moderate); <3 μM (CYP inhibition high))
% of Control Enzyme Activity (n = 1) (CYP2C19; 0.0137 μM): 103%
% of Control Enzyme Activity (n = 1) (CYP2C19; 0.0412 μM): 110%
% of Control Enzyme Activity (n = 1) (CYP2C19; 0.123 μM): 101%
% of Control Enzyme Activity (n = 1) (CYP2C19; 0.370 μM): 102%
% of Control Enzyme Activity (n = 1) (CYP2C19; 1.11 μM): 92.0%
% of Control Enzyme Activity (n = 1) (CYP2C19; 3.33 μM): 70.8%
% of Control Enzyme Activity (n = 1) (CYP2C19; 10 μM): 40.7%
IC50 (CYP2C19; human, microsomes, pH 7.4): 7310 nM
CYP inhibition class (CYP2D6 [11]): low (key: IC50 >10 μM (CYP inhibition low); <10 μM (CYP inhibition moderate); <3 μM (CYP inhibition high))
% of Control Enzyme Activity (n = 1) (CYP2D6 [11]; 0.0137 μM): 95.8%
% of Control Enzyme Activity (n = 1) (CYP2D6 [11]; 0.0412 μM): 98.7%
% of Control Enzyme Activity (n = 1) (CYP2D6 [11]; 0.123 μM): 98.6%
% of Control Enzyme Activity (n = 1) (CYP2D6 [11]; 0.370 μM): 101%
% of Control Enzyme Activity (n = 1) (CYP2D6 [11]; 1.11 μM): 97.0%
% of Control Enzyme Activity (n = 1) (CYP2D6 [11]; 3.33 μM): 84.3%
% of Control Enzyme Activity (n = 1) (CYP2D6 [11]; 10 μM): 59.2%
CYP inhibition class (CYP3A): low (key: IC50 >10 μM (CYP inhibition low); <10 μM (CYP inhibition moderate); <3 μM (CYP inhibition high))
% of Control Enzyme Activity (n = 1) (CYP3A; 0.0137 μM): 96.7% and 96.6%
% of Control Enzyme Activity (n = 1) (CYP3A; 0.0412 μM): 97.0%
% of Control Enzyme Activity (n = 1) (CYP3A; 0.123 μM): 94.5% and 94.8%
% of Control Enzyme Activity (n = 1) (CYP3A; 0.370 μM, 0.37 µM): 95.1% and 96.3%
% of Control Enzyme Activity (n = 1) (CYP3A; 1.11 μM): 95.9% and 94.6%
% of Control Enzyme Activity (n = 1) (CYP3A; 3.33 μM): 88.2% and 82.2%
% of Control Enzyme Activity (n = 1) (CYP3A; 10 μM): 61.6% and 59.9%
AUC(0-t) (in vivo; iv, 5 mg/kg): 37500 ng·h/mL
AUC(0-t) (in vivo; po, 10 mg/kg): 12000 ng·h/mL
CC50 (in vitro): 37500 ± 1000 nM
IC50 (CYP2D6 [12]): > 10000 nM
